Test results: patent publication US6444871B1, “Tetracycline repressor regulated mammalian cell transcription and viral replication switch” (Brigham and Women's Hospital, priority 1997, dated 2002)

Test system: tet operator-bearing hCMV major immediate-early enhancer-promoter
Assay: hEGF expression in porcine partial thickness wounds after particle-mediated gene transfer
Assay type: in vivo, pig
Conditions: 500 mg tetracycline intravenous; day 2 to day 3 post-gene transfer
Experimental: FIG. 5. In vivo regulation of the hCMV major immediate-early enhancer-promoter by the tet repressor. A total of 18 partial thickness wounds ([…]) were created on porcine dorsal skin. Nine wounds received 0.2 μg of pCMVtetOEGF and 0.8 μg of pcDNA3 vector DNA and the others received 0.2 μg of pCMVtetOEGF and 0.8 μg of pcDNA3-tetR by particle-mediated gene transfer. After particle bombardment, each transfected wound was enclosed in a sealed vinyl adhesive chamber containing 1.2 ml of isotonic saline in the presence of 100 units/ml penicillin and 100 μg/ml streptomycin. Wound fluid was collected from the chambers at 22, 46 and 70 hours after gene transfer and stored at −70° C. Following collection of wound fluid at each indicated time point, a new chamber was applied. Each pig was given 500 mg of tetracycline by intravenous injection at 46 hours after gene transfer. hEGF expression in wound fluid was determined by ELISA. The vertical line associated with each bar represents standard error. […]
Preparation of cartridges with coated DNA-gold beads for Accell (Agracetus/Geniva, Inc.) particle-mediated gene transfer and the utilization of the Accell helium gene gun were according to the protocol provided by Geniva, Inc. (8520 University Green, Middleton, Wis. 53562). […] Levels of EGF in wound fluid was determined by ELISA with anti-HEGF specific antibody. […]

CN(C)[C@@H]1C(O)=C(C(N)=O)C(=O)[C@@]2(O)C(O)=C3C(=O)c4c(O)cccc4[C@@](C)(O)[C@H]3C[C@@H]12 [tetracycline]
increase of human EGF expression in wounds receiving pCMVtetOEGF and pcDNA3-tetR: 4 fold
